Measurements taken from publication PMC5007443, “TNIK inhibition abrogates colorectal cancer stemness” (Nature Communications, 2016).

How the values were obtained:
HCT116 xenografts = test: HCT116 xenograft growth in BALB/c-nu/nu mice; assay type: in vivo, mouse; conditions: oral, 40 or 80 mg kg−1 BID, 14 days
Description: Five million HCT116 cells suspended in medium containing 25% Matrigel (BD Biosciences) were inoculated into the subcutaneous tissues of 9-week-old female BALB/c nude mice. When the tumour volume reached ∼80 mm^3, the mice were randomized according to tumour volume (9 mice per group).
(§1) Tumour volume was estimated based on the formula: (length × width^2)/2. The tumour volume (twice a week) and body weight (every day) of each mouse were recorded. The patient-derived spheroids and xenografts were established after obtaining informed consent from the donors.

Apc^min/+ mice = test: Intestinal tumorigenesis in Apc min/+ mice; assay type: in vivo, mouse; conditions: NCB-0846 HCl oral BID 22.5, 45, 90 mg kg−1, 35 days
Description: The mouse gut was filled with 10% buffered formalin (Sigma-Aldrich) via the anus immediately after sacrifice and opened longitudinally. The number and maximum diameter/area of tumours were measured by stereoscopic microscopy as described previously. Differences at P values of<0.05 were considered to be statistically significant.

[1] = tested on: Wnt-target genes (AXIN2, MYC and CCND1); test: Pharmacodynamics: Wnt-target gene expression in HCT116 xenografts, RT-PCR; assay type: in vivo, mouse; conditions: single oral dose 90 or 150 mg kg−1 NCB-0846 HCl
Description: Total RNA was prepared with an RNeasy Mini Kit (Qiagen). cDNA was synthesized using SuperScript II reverse transcriptase (Thermo Fisher Scientific) or a High-Capacity cDNA reverse transcription kit (Thermo Fisher Scientific) and subjected to TaqMan gene expression assay using pre-designed primer and probe sets (listed in Supplementary Table 3). Amplification data measured as an increase in reporter fluorescence were collected using the StepOne Real-Time PCR System (Thermo Fisher Scientific). The relative mRNA expression level normalized to the internal control (human/mouse β-actin (ACTB/Actb1) gene) was calculated by the comparative threshold cycle (CT) method. Experiments were performed in triplicate and repeated at least two times.

PDX COX021 = test: Patient-derived xenograft COX021 in Nu/Nu nude mice; assay type: in vivo, mouse; conditions: COX021, NCB-0846 HCl oral 45 or 90 mg/kg BID, 5-day on, 2-day off
Description: (§2) Patient-derived colorectal cancer xenografts […] were established by Shanghai ChemPartner. Female Nu/Nu nude mice aged 5–6 weeks were implanted subcutaneously with the xenografts and randomized into three treatment groups (10 mice per group) based on the developed tumour volume (∼200 mm^3).
as §1

[2] = tested on: TCF/LEF transcriptional activity of spheroid clone #6 Cl. 2; test: Spheroid TCF/LEF GFP reporter assay; assay type: cell-based; conditions: Homo sapiens, read-out: IC50, reduction of cells expressing Wnt-driven GFP
Text: Lentiviral gene transfer of the reporter gene was used to evaluate the TCF/LEF transcriptional activity of patient-derived spheroids due to their poor transfection efficiency. Spheroids were infected with TCF/LEF reporter lentiviral particles encoding the green fluorescent protein (GFP) gene under the control of the TCF/LEF-responsive promoter (Cignal Lenti TCF/LEF Reporter (GFP) (Qiagen)) or relevant negative control lentiviral particles (Cignal Lenti negative control (GFP) (Qiagen)) at a multiplicity of infection of 10 in the presence of 4 μg ml^−1 SureEntry Transduction Reagent (Qiagen) for 24 h. GFP-positive spheroids were cloned by limiting dilution in the presence of 2 μg ml^−1 puromycin (Sigma-Aldrich; Fig. 6a,b).
GFP-positive cells were detected using the Guava easy Cyte HT flow cytometer (Fig. 6c). Experiments were performed in triplicate and repeated at least two times.

PDX COX026 = test: Patient-derived xenograft COX026 in Nu/Nu nude mice; assay type: in vivo, mouse; conditions: COX026, NCB-0846 HCl oral 45 or 90 mg/kg BID, 5-day on, 2-day off
Description: as §2, §1

## O[C@H]1CC[C@@H](Oc2cccc3cnc(Nc4ccc5nc[nH]c5c4)nc23)CC1 [NCB-0846, cis-4-(2-(3H-benzo[d]imidazol-5-ylamino)quinazolin-8-yloxy)cyclohexanol]
HCT116 xenografts
  growth of tumours: suppressed
Apc^min/+ mice
  effect on colon tumorigenesis: not statistically significant
  multiplicity and dimensions of tumours in the small intestine: dose dependently reduced
[1]
  expression of Wnt-target genes (AXIN2, MYC and CCND1) in xenografts: reduced
PDX COX021
  growth of the PDXs: significantly suppressed
[2]
  IC50: 480 nM
PDX COX026
  growth of the PDXs: significantly suppressed
